Measured values from BindingDB's records for doi:10.1016/j.bmcl.2005.03.089 (Yunnan University, 2022).

What follows are compounds tested against Replicase polyprotein 1ab (Severe acute respiratory syndrome coronavirus 2, UniProt P0DTD1) (assay: Inhibition of SARS-CoV-2 MPro incubated for 5 mins by FRET assay).
Work on `CC(C)=CCc1cc(/C=C2\OC(=O)C(c3cc4c(cc3O)OC(C)(C)CC4)=C2O)ccc1O` yielded an IC50 of 10.3 µM. Work on `CC(C)(O)C1Cc2cc(/C=C3\OC(=O)C(c4cc5c(cc4O)OC(C)(C)C(O)C5)=C3O)ccc2O1` (stereo not drawn) yielded an IC50 of 9.4 µM. For `CC(C)=CCc1cc(/C=C2\OC(=O)C(c3cc(CCC(C)(C)O)c(O)cc3O)=C2O)ccc1O`, the IC50 was 7.7 µM.
